Our source for the target mRNA inhibition values is the OligoGym collection.

“And” between values parts separate entries of the source, which are not always exact repeats. Equal values may be shown once. After the bases stand the sugars from the 5' end (letter, count) and the backbone: PS all phosphorothioate, else s phosphorothioate and o phosphodiester by linkage. Methylation of C is not given here. e = 2'-O-(2-methoxyethyl) (MOE); l = locked nucleic acid (LNA); k = constrained ethyl (cEt); d = 2'-deoxy (DNA)

One series addresses HTRA1. The conditions noted are these: ASO, U251, 5 µM.
In another series the target is YAP1. The note with it: ASO, SNU-449, 2 µM.

For “CTACGCATTGTATCGAC (sugars l2 d11 l4, PS)”, the target mRNA inhibition with HTRA1 is 74%.
Still for that read-out and setting: the same measure for “GTATCGACTGCATTAGTTGG (sugars l1 d17 l2, PS)”: 41%; for “TTCTATCTACGCATTGTATC (sugars l3 d15 l2, PS)”: 64%.
Still for that read-out and setting: the same measure for TCTACGCATTGTATCG (sugars l3 d10 l3, PS): 97%; for AATGTGTAAGAAGTAC (sugars l3 d9 l4, PS): 75%; for “ATCTACGCATTGTATCG (sugars l4 d10 l3, PS)”: 85%.
Same read-out and setting: for TTCTTCTATCTACGCA (sugars l3 d10 l3, PS) the value was 92%.
As for “ATTGTATCGACTGCATTA (sugars l4 d11 l3, PS)”, the target mRNA inhibition with HTRA1 was 82%.
Same read-out and setting: for “GCAATGTGTAAGAAGTACT (sugars l4 d12 l3, PS)” the value was 51%.
For the sequence “TCTATCTACGCATTGTATCG (sugars l2 d16 l2, PS)”, the target mRNA inhibition with HTRA1 stood at 58%.
CTAAGTAAGGTTTCCC (sugars k3 d10 k3, PS): the target mRNA inhibition with YAP1 worked out at 83%.
Regarding “GTAAGAAGTACTTTAATAG (sugars l4 d11 l4, PS)”, the target mRNA inhibition with HTRA1 was found to be 80%.
Still for that read-out and setting: for “TATCGACTGCATTAGTTGG (sugars l3 d14 l2, PS)” the value was 57%.
The same measure, in the same setting: for “GAAGTACTTTAATAGCTCAA (sugars l4 d13 l3, PS)” the value was 90%; for CTATCTACGCATTGTA (sugars l3 d10 l3, PS), 98% and 78%.
On the same count and under the same terms, for TTGTATCGACTGCATT (sugars l3 d11 l2, PS) the value was 99.7% and 95%.
In the case of “ATTAGAGTATGTGGCA (sugars kkdddddddddkekek, PS)”, the target mRNA inhibition with YAP1 was 57%.
The same measure, in the same setting: the same measure for “ATTTAGGATGCATGGT (sugars kekdddddddddeekk, PS)”: 70%.
Turning to “TCTACGCATTGTATCGAC (sugars l4 d12 l2, PS)”, the target mRNA inhibition with HTRA1 was 74%.
The same measure, in the same setting: for “CTGACTTGGAGAAAAGCAC (sugars l1 d16 l2, PS)” the value was -4%; for GCTTCTTCTATCTACG (sugars l3 d10 l3, PS), 96%; for “CAATGTGTAAGAAGTACTT (sugars l4 d11 l4, PS)”, 76%.
Turning to GTATCGACTGCATTAG (sugars l3 d11 l2, PS), the target mRNA inhibition with HTRA1 is 99.6% and 97%.
In the case of CAATGTGTAAGAAGTA (sugars l3 d9 l4, PS), the target mRNA inhibition with HTRA1 was 73%.
Still for that read-out and setting: for CAATGTGTAAGAAGTA (sugars l4 d8 l4, PS) the value was 80%.
Still for that read-out and setting: for AGAGTCATCGTGCTCC (sugars l3 d10 l3, PS) the value was 65%; for “GATGATGACTCAGTTAAAG (sugars l4 d12 l3, PS)”, 72%; for CTACGCATTGTATCGA (sugars l3 d10 l3, PS), 96%.
Consider “ATTCAGATTTAGGATG (sugars kkdddddddddkdkdk, PS)”, for which, in the series with YAP1, the target mRNA inhibition was -2%.
